Reference: US20250302972A1, “FORMULATION” (ENA Respiratory Pty Ltd, priority 2021, published 2025)
Values joined by “and” are separate entries in the source; they are usually repeats but may differ in a detail not shown here. Equal values may be shown once.

What was measured:
human TLR2 (hTLR2) [1] = molecular target: T1, human TLR2 (hTLR2) (Homo sapiens, UniProt O60603); assay: Activation of human TLR2 II: HEK-BLUE-hTLR2 SEAP reporter assay; type: cell-based
T1 construct: host or cells: HEK293 (HEK-BLUE-hTLR2)

HEK-Blue Null2 cells = assay: HEK-Blue Null2 control cell line (control for mouse TLR2); type: cell-based; details: TLR2-free control cells
Method: (§1) The secreted embryonic alkaline phosphatase (SEAP) reporter is under the control of a promoter inducible by the transcription factor NF-κB. This reporter gene allows the monitoring of signaling through the TLR, based on the activation of NF-κB. In a 96-well plate (200 μL total volume) containing the appropriate cells (50,000-75,000 cells/well), 20 μL of the test article or the positive control ligand (HKLC) is added to the wells. The media added to the wells is designed for the detection of NF-κB induced SEAP expression. After a 16-24-hour incubation the optical density (OD) is read at 650 nm on a Molecular Devices SpectraMax 340PC absorbance detector.

human TLR2 (hTLR2) [2] = molecular target: T1, human TLR2 (hTLR2); assay: Activation of human TLR2 IV: HEK-BLUE-hTLR2 cells; type: cell-based; details: FIG. 4
Method: HEK-BLUE-hTLR2 cells are designed for studying the stimulation of human TLR2 (hTLR2) by monitoring the activation of NF-kB. HEK-BLUE-hTLR2 cells are obtained by co-transfection of the hTLR2 and SEAP (secreted embryonic alkaline phosphatase) reporter genes into HEK293 cells. Stimulation with a TLR2 ligand activates NF-kB which induces the production of SEAP.
HEK-BLUE-hTLR2 cells were purchased from InvivoGen (San Diego, CA, USA). Cells were grown in DMEM supplemented with 10% FCS, 100 U/ml penicillin, 100 ug/ml streptomycin and 2 mM L-glutamine, 100 μg/mL Normocin in the presence of selection antibiotic purchased from InvivoGen and passaged when 70% confluence was reached per manufacturer's recommendation. […]

HEK-Blue Null1 cells = assay: HEK-Blue Null1 control cell line (control for human TLR2); type: cell-based; details: TLR2-free control cells
Method: as §1

human TLR2 = molecular target: T2, human TLR2 (Homo sapiens, UniProt O60603); assay: HEK-Blue hTLR2 Dose Response (NF-κB SEAP reporter); type: cell-based; details: for stimulatory (agonist) activity for hTLR2: HEK-Blue hTLR2
T2 construct: expressed in transfected cells; host or cells: HEK-Blue hTLR2
Method: (§2) Toll-Like Receptor (TLR) stimulation is tested by assessing NF-κB activation in the TLR expressing cell lines. HEK-Blue h/mTLR2 cells have been stably transfected with human or mouse TLR2 and CD14. The activity of the test articles are tested on human and mouse TLR2, as potential agonists. The test articles are evaluated at seven concentrations and compared to control ligands (see list below). These steps are performed in triplicate.
[…] Starting from the 5 μg/mL working stock, a series of six 1:4 serial dilutions were made by mixing 100 μL of the previous highest dilution with 300 μL sterile PBS.
as §1

[3] = Stability IV: formulation pH at each time point; type: physicochemical
Method: Each compound was formulated in 0.9% w/w saline with addition of 0.1% w/w EDTA at about pH 5. The formulations were stored in the dark under accelerated conditions (40° C./75% RH) and reference formulations were stored at −80° C. At days 0, 9 and 28, samples were analysed by UHPLC and pH was measured.
The remaining ˜1 mL of solution in the clear glass HPLC vials was stored at 40° C./75% RH and was used to measure pH at each time point.
The formulation pH data recorded at each time point are compiled in Table 19. There was a general trend for the pH to increase with time but the effect was not pronounced.

mouse TLR2 = molecular target: T3, mouse TLR2 (Mus musculus, UniProt Q9QUN7); assay: HEK-Blue mTLR2 Dose Response (NF-κB SEAP reporter); type: cell-based
T3 construct: expressed in transfected cells; host or cells: HEK-Blue mTLR2
Method: as §2
A 5 μg/mL working stock was then prepared for each compound from the 20 μg/mL dilution in sterile PBS. Starting from the 5 μg/mL working stock, a series of six 1:4 serial dilutions were made by mixing 100 μL of the previous highest dilution with 300 μL sterile PBS.
as §1

SARS-CoV-2 [4] = assay: A204 efficacy against SARS-CoV-2 in the hamster model - treatment; type: in vivo; details: 10 ug/ml in 100 ul, 8 hours post infection; to 7 dpi
SARS-CoV-2 [5] = assay: A204 efficacy against SARS-CoV-2 in the hamster model - prophylaxis; type: in vivo
[6] = Solubility in deionised water; type: physicochemical; details: DI water; read-out: concentration at which fully soluble in deionised (DI) water
Method: All spray drying feed solutions were prepared in deionised (DI) water. […] All other excipient components (mannitol, trehalose and HPMC) were also shown readily soluble in the DI water.

T2 sequence (O60603 21-784): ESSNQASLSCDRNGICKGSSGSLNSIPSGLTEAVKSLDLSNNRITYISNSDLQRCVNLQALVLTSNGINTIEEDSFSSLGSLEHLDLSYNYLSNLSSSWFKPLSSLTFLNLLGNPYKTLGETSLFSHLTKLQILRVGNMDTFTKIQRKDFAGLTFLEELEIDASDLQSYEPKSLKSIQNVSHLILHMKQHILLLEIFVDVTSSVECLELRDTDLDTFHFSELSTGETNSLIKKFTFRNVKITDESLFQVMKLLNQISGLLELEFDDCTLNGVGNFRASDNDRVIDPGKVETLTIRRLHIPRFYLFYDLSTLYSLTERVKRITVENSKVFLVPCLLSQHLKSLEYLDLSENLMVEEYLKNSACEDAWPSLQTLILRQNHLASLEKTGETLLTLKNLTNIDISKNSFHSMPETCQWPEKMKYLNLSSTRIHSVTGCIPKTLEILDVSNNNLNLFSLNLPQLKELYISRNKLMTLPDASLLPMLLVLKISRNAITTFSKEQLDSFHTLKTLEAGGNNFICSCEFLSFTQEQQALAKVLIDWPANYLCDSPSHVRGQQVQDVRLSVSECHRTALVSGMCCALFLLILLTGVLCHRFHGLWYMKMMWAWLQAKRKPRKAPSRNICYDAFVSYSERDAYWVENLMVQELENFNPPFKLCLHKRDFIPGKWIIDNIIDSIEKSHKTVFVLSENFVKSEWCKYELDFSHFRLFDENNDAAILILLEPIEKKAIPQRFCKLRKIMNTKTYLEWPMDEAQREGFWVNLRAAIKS
T2 sequence (Q9Y2C9 32-796 partner): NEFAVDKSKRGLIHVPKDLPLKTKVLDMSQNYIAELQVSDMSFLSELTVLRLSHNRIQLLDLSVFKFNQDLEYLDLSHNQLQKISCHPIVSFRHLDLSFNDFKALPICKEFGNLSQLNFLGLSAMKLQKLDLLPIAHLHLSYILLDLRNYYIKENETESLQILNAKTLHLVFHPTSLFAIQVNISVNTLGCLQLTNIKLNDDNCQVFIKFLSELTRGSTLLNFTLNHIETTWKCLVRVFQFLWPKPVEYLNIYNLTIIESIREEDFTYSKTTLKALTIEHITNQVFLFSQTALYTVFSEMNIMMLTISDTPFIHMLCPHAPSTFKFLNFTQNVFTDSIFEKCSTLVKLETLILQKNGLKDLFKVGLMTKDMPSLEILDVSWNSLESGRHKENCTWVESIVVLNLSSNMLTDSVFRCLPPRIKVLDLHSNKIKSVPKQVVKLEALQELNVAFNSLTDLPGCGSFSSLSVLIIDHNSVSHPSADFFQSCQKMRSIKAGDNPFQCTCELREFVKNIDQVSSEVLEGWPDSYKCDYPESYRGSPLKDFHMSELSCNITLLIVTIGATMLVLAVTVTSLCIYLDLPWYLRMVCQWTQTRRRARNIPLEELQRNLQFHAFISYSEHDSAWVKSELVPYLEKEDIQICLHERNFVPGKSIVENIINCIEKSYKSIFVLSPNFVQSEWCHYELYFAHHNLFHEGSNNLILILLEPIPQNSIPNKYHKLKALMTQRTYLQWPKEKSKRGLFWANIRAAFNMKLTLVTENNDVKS
T1 sequence (O60603 21-784): as the sequence (O60603 21-784) above
T1 sequence (Q9Y2C9 32-796 partner): as the sequence (Q9Y2C9 32-796 partner) above
T3 sequence (Q9QUN7 25-784): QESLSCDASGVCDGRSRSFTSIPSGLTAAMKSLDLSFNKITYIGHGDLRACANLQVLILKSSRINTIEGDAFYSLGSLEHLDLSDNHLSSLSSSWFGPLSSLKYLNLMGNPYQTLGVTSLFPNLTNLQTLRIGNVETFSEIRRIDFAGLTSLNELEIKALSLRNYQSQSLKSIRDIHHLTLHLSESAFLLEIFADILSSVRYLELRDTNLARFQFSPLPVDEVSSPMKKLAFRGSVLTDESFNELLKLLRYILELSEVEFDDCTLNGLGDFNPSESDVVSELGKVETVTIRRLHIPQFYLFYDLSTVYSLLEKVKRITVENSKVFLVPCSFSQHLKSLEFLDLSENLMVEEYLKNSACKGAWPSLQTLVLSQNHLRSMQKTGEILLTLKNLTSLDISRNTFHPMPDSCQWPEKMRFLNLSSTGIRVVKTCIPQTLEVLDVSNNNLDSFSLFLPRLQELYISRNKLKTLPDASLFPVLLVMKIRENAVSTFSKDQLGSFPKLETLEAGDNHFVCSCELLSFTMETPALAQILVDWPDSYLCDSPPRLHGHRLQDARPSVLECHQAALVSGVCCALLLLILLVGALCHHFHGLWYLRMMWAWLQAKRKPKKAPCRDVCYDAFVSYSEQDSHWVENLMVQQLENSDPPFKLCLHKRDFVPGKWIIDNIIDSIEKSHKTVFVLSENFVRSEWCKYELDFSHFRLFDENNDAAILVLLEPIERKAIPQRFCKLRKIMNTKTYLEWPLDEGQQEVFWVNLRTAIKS
T3 sequence (Q9Y2C9 32-796 partner): as the sequence (Q9Y2C9 32-796 partner) above

| Compound | optical density (650 nm), screenings 1-3 (human TLR2 (hTLR2) [1]; 0.1 ng/mL) | optical density (650 nm), screenings 1-3 (human TLR2 (hTLR2) [1]; 0.31 ng/mL) | optical density (650 nm), screenings 1-3 (human TLR2 (hTLR2) [1]; 0.5 ng/mL) | optical density (650 nm), screenings 1-3 (human TLR2 (hTLR2) [1]; 2.0 ng/mL) | optical density (650 nm), screenings 1-3 (human TLR2 (hTLR2) [1]; 7.8 ng/mL) | optical density (650 nm), screenings 1-3 (human TLR2 (hTLR2) [1]; 31.3 ng/mL) | optical density (650 nm), screenings 1-3 (human TLR2 (hTLR2) [1]; 125 ng/mL) | stimulatory response in HEK-Blue Null2 (mouse) cells (HEK-Blue Null2 cells) | activity at TLR2 (human TLR2 (hTLR2) [2]) | stimulatory response in HEK-Blue Null1 (human) cells (HEK-Blue Null1 cells) | optical density (650 nm), Average (human TLR2; 0.12 pg/mL) | optical density (650 nm), screenings 1-3 (human TLR2; 0.12 pg/mL) | optical density (650 nm), Average (human TLR2; 0.49 pg/mL) | optical density (650 nm), screenings 1-3 (human TLR2; 0.49 pg/mL) | optical density (650 nm), Average (human TLR2; 1.95 pg/mL) | optical density (650 nm), screenings 1-3 (human TLR2; 1.95 pg/mL) | optical density (650 nm), Average (human TLR2; 7.81 pg/mL) | formulation pH ([3]; 0-days) | formulation pH ([3]; 9-days, 40° C./75% RH) | formulation pH ([3]; 28-days, 40° C./75% RH) | also measured |
| --- | --- | --- | --- | --- | --- | --- | --- | --- | --- | --- | --- | --- | --- | --- | --- | --- | --- | --- | --- | --- | --- |
| CCCCCCCCCCCCCCC(C)C(=O)OCC[C@H](CSC[C@H](N)C(=O)N[C@@H](CO)C(=O)NCCOCCOCCOCCOCCOCCOCCOCCOCCOCCOCCOCCOCCOCCOCCOCCOCCOCCOCCOCCOCCOCCOCCOCCOCCOCCOCCOCCOCCC(=O)NCC(N)=O)OC(=O)C(C)CCCCCCCCCCCCCC (stereo partly drawn) [B12] | 0.239 and 0.202 and 0.208 | 0.116 and 0.132 and 0.137 | 0.585 and 0.558 and 0.559 | 1.429 and 1.308 and 1.638 | 2.187 and 2.257 and 2.302 | 2.422 and 2.423 and 2.449 | 2.409 and 2.564 and 2.615 | not observed | significant activity at TLR2 | not observed | 1.362 | 1.443 and 1.313 and 1.329 | 1.860 | 1.892 and 1.785 and 1.902 | 2.045 | 2.149 and 2.008 and 1.979 | 2.411 | 5.6 | 5.7 | 5.7 | optical density (650 nm), screenings 1-3 (human TLR2; 7.81 pg/mL): 2.420 and 2.446 and 2.366; optical density (650 nm), Average (human TLR2; 31.25 pg/mL): 2.457; optical density (650 nm), screenings 1-3 (human TLR2; 31.25 pg/mL): 2.492 and 2.500 and 2.380; optical density (650 nm), Average (human TLR2; 125 pg/mL): 2.568; optical density (650 nm), screenings 1-3 (human TLR2; 125 pg/mL): 2.608 and 2.541 and 2.555; optical density (650 nm), Average (human TLR2; 500 pg/mL): 2.471; optical density (650 nm), screenings 1-3 (human TLR2; 500 pg/mL): 2.584 and 2.404 and 2.426; stimulatory (agonist) activity for hTLR2 (human TLR2): possesses stimulatory activity; stimulatory (agonist) activity for mTLR2 (mouse TLR2): possesses stimulatory activity |
| CCCCCCCCCCCCCCC(C)C(=O)OC[C@H](CSC[C@H](N)C(=O)N[C@@H](CO)C(=O)NCCOCCOCCOCCOCCOCCOCCOCCOCCOCCOCCOCCOCCOCCOCCOCCOCCOCCOCCOCCOCCOCCOCCOCCOCCOCCOCCOCCOCCC(=O)NCC(N)=O)OC(=O)C(C)CCCCCCCCCCCCCC (stereo partly drawn) [B4] | 0.182 and 0.206 and 0.197 | 0.126 and 0.115 | 0.719 and 0.594 and 0.617 | 1.660 and 1.529 and 1.498 | 2.214 and 2.163 | 2.438 and 2.327 and 2.350 | 2.451 and 2.411 and 2.467 | not observed | – | not observed | 0.740 | 0.653 and 0.759 and 0.809 | 1.479 | 1.409 and 1.507 and 1.521 | 1.823 | 1.795 and 1.757 and 1.916 | 2.260 | 5.6 | 5.7 | 5.7 | optical density (650 nm), screenings 1-3 (human TLR2; 7.81 pg/mL): 2.288 and 2.168 and 2.323; optical density (650 nm), Average (human TLR2; 31.25 pg/mL): 2.481; optical density (650 nm), screenings 1-3 (human TLR2; 31.25 pg/mL): 2.440 and 2.485 and 2.518; optical density (650 nm), Average (human TLR2; 125 pg/mL): 2.521; optical density (650 nm), screenings 1-3 (human TLR2; 125 pg/mL): 2.569 and 2.508 and 2.487; optical density (650 nm), Average (human TLR2; 500 pg/mL): 2.611; optical density (650 nm), screenings 1-3 (human TLR2; 500 pg/mL): 2.717 and 2.590 and 2.526; stimulatory (agonist) activity for hTLR2 (human TLR2): possesses stimulatory activity; stimulatory (agonist) activity for mTLR2 (mouse TLR2): possesses stimulatory activity |
| CCCCCCCCCCCCCCCC(=O)OCC[C@H](CSC[C@H](N)C(=O)N[C@@H](CO)C(=O)NCCOCCOCCOCCOCCOCCOCCOCCOCCOCCOCCOCCOCCOCCOCCOCCOCCOCCOCCOCCOCCOCCOCCOCCOCCOCCOCCOCCOCCC(=O)NCC(N)=O)OC(=O)CCCCCCCCCCCCCCC [A204] | – | – | – | – | – | – | – | – | significant activity at TLR2 | – | – | – | – | – | – | – | – | 5.0 | 5.2 | 5.2 | recovery of weight loss (SARS-CoV-2 [4]): recovered weight loss more rapidly than PBS treated; weight change during infection (SARS-CoV-2 [5]; 50 ug/ml in 100 ul intranasal 24 hours prior to infection): lost no weight; lung viral loads versus mock treated animals (SARS-CoV-2 [5]; 7 dpi): slightly lower; viral RNA level versus mock treated animals (fold lower) (SARS-CoV-2 [5]; throat swabs, 2 days post infection, RT-qPCR): 32 fold; solubility [6]: ≤ 2000 µg/mL |
